PMC12040169 (PLOS Biology, 2025)

Experiment: in vitro
Conditions: human, hela cells, % viability

SMILES | viability at 28.5 h, 10 µM
CC(=O)Nc1ccc(/C(C)=N/NC(=O)c2ccc(CN3CCOCC3)cc2)cc1 [CBK262720] | 91.7%
O=C(N/N=C/c1cc2c(cc1Br)OCO2)c1ccc(CN2CCOCC2)cc1 [CBK262721] | 90.1%
N#Cc1c(NC(=O)c2ccc(C(=O)O)cc2C(=O)O)sc2c1CCCC2 [CBK262722] | 105%
O=C(CSc1ccc(Cl)cc1)Nc1ccc(S(=O)(=O)N2CCOCC2)cc1 [CBK262723] | 95%
Cc1c(C(=O)O)cccc1N1C(=O)c2ccc([N+](=O)[O-])cc2C1=O [CBK262724] | 99.9%
Cc1[nH]nc(Nc2cccc(C(=O)O)c2)c1[N+](=O)[O-] [CBK262725] | 96.2%
OC(CN1CCN(C(c2ccccc2)c2ccccc2)CC1)Cn1c2ccccc2c2ccccc21 (stereo not drawn) [CBK262730] | 99.6%
Cc1ccc2nc(Cl)c(/C=N/NC(=O)CN3CCOCC3)cc2c1 [CBK262731] | 91.2%
C=CCn1c(SCC(=O)O)nnc1-c1ccc([N+](=O)[O-])cc1 [CBK262736] | 88.6%
C=C(C)Cn1c(SCC(=O)O)nnc1-c1ccccc1 [CBK262737] | 91.9%
O=[N+]([O-])c1ccc2c(c1)C(N1CCOCC1)/C(=C/COc1ccc3ccccc3c1Br)O2 (stereo not drawn) [CBK262738] | 97.1%
O=[N+]([O-])c1ccc(O)c(C(C#Cc2ccccc2)N2CCOCC2)c1 (stereo not drawn) [CBK262741] | 93.2%
CN1CCC(=NNC(=O)c2ccc(N(Cc3ccccc3)S(C)(=O)=O)cc2)CC1 [CBK262742] | 82.4%
CC(=O)Nc1cccc(/C(C)=N/NC(=O)c2ccc(CN3CCOCC3)cc2)c1 [CBK262746] | 95.4%
Cc1ccc(C(=O)O)cc1N1C(=O)c2ccc(S(=O)(=O)c3ccc(C(=O)O)cc3)cc2C1=O [CBK262747] | 96.1%
C/C(CCc1ccccc1)=N\NC(=O)c1ccc(CN2CCOCC2)cc1 [CBK262752] | 99.5%
Clc1ccc(OC/C=C2\Oc3ccc(Cl)cc3C2N2CCOCC2)c(Cl)c1 (stereo not drawn) [CBK262753] | 94.5%
CS(=O)(=O)N(Cc1ccccc1)c1ccc(C(=O)Nc2ccc(-c3ccccc3)cc2)cc1 [CBK262754] | 90.6%
Cc1ccc(N2C(=O)/C(=C/c3ccc(O)c(O)c3)SC2=S)cc1C [CBK262756] | 76.8%
CCOc1cc(/C=C2\SC(=S)N(NC(=O)c3cccnc3)C2=O)ccc1O [CBK262759] | 105%
O=C(O)c1ccc(S(=O)(=O)c2ccc3c(c2)C(=O)N(c2ccccc2-c2ccccc2)C3=O)cc1 [CBK262760] | 101%
O=C(CN1C(=O)c2ccccc2C1=O)Nc1cccc2ncccc12 [CBK262761] | 84%
Cc1nnc(SCC(=O)N/N=C/c2ccncc2)n1-c1ccccc1 [CBK262762] | 85.4%
CN1CCN(N/C=C2/C(=O)N(c3ccc([N+](=O)[O-])cc3)N=C2c2ccccc2)CC1 [CBK262763] | 89.6%
COc1ccccc1N1C(=O)CC(SC(=N)N/N=C(\C)c2ccc(O)cc2)C1=O (stereo not drawn) [CBK262766] | 100%
Cc1nnc(SCC(=O)N/N=C/c2ccc(-c3ccc(Br)cc3)o2)n1-c1ccccc1 [CBK262769] | 104%
O=C(N/N=C/c1ccccc1O)c1ccn(Cc2ccc(Cl)cc2)n1 [CBK262770] | 91.3%

SMILES | viability at 28.5 h, 10 µM
O=C1NCC(c2ccccc2)C1C(=O)N/N=C\c1cc(O)ccc1[N+](=O)[O-] (stereo not drawn) [CBK262772] | 91.8%
O=C1c2ccc(Oc3ccc4c(c3)C(=O)N(c3cccnc3)C4=O)cc2C(=O)N1c1cccnc1 [CBK262773] | 88.6%
CN1CCN(c2nc(-c3ccccc3)cc(-c3ccc(Br)cc3)n2)CC1 [CBK262774] | 93.7%
O=C(CSc1nnc(-c2ccncc2)n1-c1ccccc1)N/N=C/c1c[nH]c2ccccc12 [CBK262776] | 90.5%
O=C(Cc1ccccc1)N/N=C/c1cccc2cccnc12 [CBK262778] | 85.7%
Cc1cc2nc(-c3cc(NC(=O)c4ccc(C)c([N+](=O)[O-])c4)ccc3O)oc2cc1C [CBK262779] | 89.1%
O=C(COc1ccccc1Cl)N/N=C/c1ccc(-c2ccccc2[N+](=O)[O-])o1 [CBK262782] | 112%
O=C(c1cccc([N+](=O)[O-])c1)c1ccc2c(c1)C(=O)N(Cc1cccnc1)C2=O [CBK262784] | 80.1%
O=C(O)/C=C/C(=O)N(Cc1ccc2c(c1)OCO2)C1CC(=O)N(c2ccccc2)C1=O (stereo not drawn) [CBK262786] | 91.4%
COc1cc(NC(=O)c2ccc3c(c2)C(=O)N(c2ccccc2OC)C3=O)c(C(=O)O)cc1OC [CBK262787] | 95.1%
O=C(O)c1ccc(/C=N\NC(=O)C2COc3cc4ccccc4cc3O2)cc1 (stereo not drawn) [CBK262792] | 90.4%
O=C(CN1C(=O)c2ccccc2C1=O)NCc1ccc(C(=O)O)cc1 [CBK262795] | 90.2%
COc1cc(NS(=O)(=O)c2ccc(Nc3nc(-c4sc(N)nc4C)cs3)cc2)nc(OC)n1 [CBK262796] | 91.2%
Cc1ccc(S(=O)(=O)NC(C)(C)CN2CCN(C(c3ccccc3)c3ccccc3)CC2)cc1 [CBK262799] | 90%
O=C(O)c1cc(NC(=O)c2cccc(F)c2)cc(NC(=O)c2cccc(F)c2)c1 [CBK262800] | 90.6%
O=C(O)CCCN1C(=O)/C(=C/c2ccccc2[N+](=O)[O-])SC1=S [CBK262801] | 90.4%
CC(O)CNCCNc1c(Cl)cccc1[N+](=O)[O-] (stereo not drawn) [CBK262802C] | 98.8%
O=[N+]([O-])c1cc(S(=O)(=O)N2CCCCCC2)ccc1NCc1ccccc1 [CBK262804] | 88.3%
CC(CO)(CO)Nc1ccc(C(F)(F)F)cc1[N+](=O)[O-] [CBK262806] | 61.9%
Cc1ccc(-c2ccc(/C=N\NC(=O)C3C(=O)NCC3c3ccccc3)o2)cc1Cl (stereo not drawn) [CBK262808] | 98.7%
O=C(Oc1ccc(/C=N/NC(=O)C2COc3ccccc3O2)cc1)c1cccnc1 (stereo not drawn) [CBK262811] | 96.5%
COc1ccc(/C=N/NC(=O)CSc2nnc(C)n2-c2ccccc2)cc1 [CBK262812] | 114%
CC(Oc1ccccc1)C(=O)Nc1cccc(-c2nnc(-c3ccccc3)o2)c1 (stereo not drawn) [CBK262822] | 91.2%
O=C(O)c1ccc(S(=O)(=O)c2ccc3c(c2)C(=O)N(c2cc(C(=O)O)cc(C(=O)O)c2)C3=O)cc1 [CBK262824] | 92.8%
C/C(=N\NC(=O)c1nc(-c2ccccc2)cc(-c2ccccc2)n1)c1cccnc1 [CBK262827] | 90.2%
O=C(CSc1nnc(-c2ccncc2)n1-c1ccccc1)N/N=C/c1ccco1 [CBK262828] | 94.4%
CCOc1cccc(N2C(=O)CC(N3CCN(c4ccccn4)CC3)C2=O)c1 (stereo not drawn) [CBK262829] | 105%

SMILES | viability at 28.5 h, 10 µM
O=C(O)c1ccc(CN2C(=O)c3ccc(C(=O)c4ccc(C(=O)O)cc4)cc3C2=O)cc1 [CBK262831] | 102%
CC1=CC(C)C(CNCCN2CCNCC2)C(C)C1 (stereo not drawn) [CBK262832] | 90%
COc1ccc(N2C(=O)c3ccc(C(=O)Nc4ccccc4C(=O)O)cc3C2=O)cc1O [CBK262833] | 97.8%
O=C(O)CCCCCN1C(=O)/C(=C/c2ccc(O)cc2)SC1=S [CBK262835] | 87.6%
Nc1ccc(-c2nc3cc(C(=O)c4ccc5[nH]c(-c6ccc(N)cc6)nc5c4)ccc3[nH]2)cc1 [CBK262848] | 99.7%
CN1CCN(CCC(=O)N/N=C/c2ccc(O)cc2O)CC1 [CBK262849] | 94.2%
O=C(CSc1ncn[nH]1)N/N=C/c1cn(-c2ccccc2)nc1-c1ccccc1 [CBK262850] | 101%
O=C(O)CCCN1C(=O)/C(=C/c2ccc(O)c(O)c2)SC1=S [CBK262852] | 84.9%
O=C(NC(C(=O)N/N=C/c1cccc(O)c1)c1n[nH]c(=O)c2ccccc12)c1ccccc1 (stereo not drawn) [CBK262853] | 89%
Cc1cc2nc(-c3cc(NC(=O)c4cccc([N+](=O)[O-])c4)ccc3O)oc2cc1C [CBK262855] | 103%
COC(=O)c1ccc(N2C(=O)CC(NCCc3ccc(S(N)(=O)=O)cc3)C2=O)cc1 (stereo not drawn) [CBK262859] | 99.9%
Cc1ccc(S(=O)(=O)NCC(c2ccccc2)N2CCN(CCC#N)CC2)cc1 (stereo not drawn) [CBK262865] | 97.4%
O=C(O)c1ccc(S(=O)(=O)c2ccc3c(c2)C(=O)N(c2ccc(Sc4ccc([N+](=O)[O-])cc4)cc2)C3=O)cc1 [CBK262869] | 104%
CC(CCc1ccccc1)NC1CCCc2c1[nH]c1ccc([N+](=O)[O-])cc21 (stereo not drawn) [CBK262875] | 73.2%
COc1ccc(CCC(C)NC2CCCc3c2[nH]c2ccc([N+](=O)[O-])cc32)cc1 (stereo not drawn) [CBK262876] | 71.6%
CC(NC1CCN(Cc2ccccc2)CC1)C12CC3CC(CC(c4ccc(Cl)cc4)(C3)C1)C2 (stereo not drawn) [CBK262877] | 90.1%
CC1C2CCCN2CCN1Cc1cccc(Oc2ccccc2)c1 (stereo not drawn) [CBK262880] | 94.9%
Cc1cc(C)nc(SCC(=O)N/N=C2/C(=O)Nc3ccccc32)n1 [CBK262883] | 108%
COc1ccc(-c2cc(C(=O)N/N=C/c3c(C)[nH]c4ccccc34)[nH]n2)cc1 [CBK262884] | 55.7%
O=C(N/N=C/c1ccccn1)c1cc(-c2ccc3ccccc3c2)[nH]n1 [CBK262886] | 93.9%
CCOc1ccc(-c2n[nH]c(C(=O)N/N=C3/C(=O)Nc4ccccc43)c2C)cc1 [CBK262889] | 99.6%
CC(NCc1ccncc1)=C1C(=O)c2ccccc2C1=O [CBK262890] | 105%
N#C/C(=C/c1c[nH]c2ccccc12)c1n[nH]c(N)c1C#N [CBK262893] | 70.4%
N=c1n(CC(=O)O)c2ccccc2n1Cc1ccc(Cl)cc1 [CBK262897B] | 89.5%
c1ccc(-c2oc3ncn4nc(COc5cccc6ccccc56)nc4c3c2-c2ccccc2)cc1 [CBK262898] | 99.9%
Cc1cc(=O)n2ccc(CN3CCOCC3)c(O)c2n1 [CBK262899C] | 114%

Same assay, conditions: human, hela cells, % viability, bulk resorufin, single well

SMILES | viability at 28.5 h, 10 µM
CN1C(=O)C(=CNCCN2CCN(C(=S)Nc3ccccc3)CC2)C(=O)N(C)C1=O [CBK262858] | 97.5%
